Test results taken from patent US10426755B2, “Methods for inhibiting cancer cells” (Chang Gung Memorial Hospital, Chiayi, priority 2015, dated 2019).
“Also recorded” adds a separate entry of the source.

How the values were obtained:
Format in all cases: cell-based
[1] = test system: CCL2 in RAW 264.7 cells/DU145 co-culture; test: CCL2 ELISA, RAW 264.7/DU145 co-culture; conditions: DT-treated macrophage/DU145 co-culture medium; 5 or 10 μM DT, 24 hours; FIG. 15 (c)
Protocol: As illustrated in Example 10, the production of CCL2 was inhibited by DT in both prostate cancer cells and macrophage, the effect of DT on monocyte/cancer cell co-culture and macrophage/cancer cell co-culture was examined using the invasion assay described in Example 9. • (a) THP1 monocytes, Raw264.7 macrophage, monocyte/prostate cancer co-culture and macrophage/prostate cancer co-culture were treated with a vehicle (DMSO), 5 or 10 μM DT for 24 hours, the cultured medium was collected and placed into the lower chamber of a transwell plate. • (b) Prostate cancer cells (PC3, DU145 and 22RV1) were placed in the cell invasion assay). The level of CCL2 in the invasion assay was measured by ELIZA method.

[2] = test system: colorectal cancer cells (chemotherapy resistant HCT116); test: Cell migration (wound-healing) assay, colorectal cancer cells; conditions: DT vs control vehicle, 24 h, dose dependent; FIG. 13 (b)
Protocol: An in vitro evaluation of the effect of DT on lung cancer cells (A549 and chemotherapy resistant/metastatic H460), prostate cancer cells (metastatic DU145) and colorectal cancer cells (chemotherapy resistant HCT116) invasion and migration was performed, using cell invasion assay and cell migration assay.
Cell Migration Assay: In vitro wound-healing assay was used to assess cell motility in two dimensions. Cancer cells were plated overnight to achieve a subconfluent cell layer in 24-well plates. A scratch was made on the cell layer with a micropipette tip, and cultures were washed twice with serum-free medium to remove floating cells. Cancer cells were incubated in a culture medium containing DT or the control vehicle. Wound healing was visualized by comparing photographs taken at the time of adding the DT/control vehicle and 24 h later. Three experiments were done in quadruplicates.

[3] = test system: prostate cancer cell lines (LNCaP, hormone therapy-resistant PC3, DU145 and 22RV1); test: XTT proliferation assay, prostate cancer cells; conditions: 1, 5 and 10 μM DT, 1-2 days, XTT absorbance 492 nm; FIG. 1
Protocol: An in vitro evaluation of the effect of dihydroisotanshinone I (DT) on the following prostate cancer cell lines was performed: LNCaP (with lymph node metastasis), hormone therapy resistant PC3 (with bone metastasis), 22RV1, DU145 (with brain metastasis), were obtained from Bioresource Collection and Research Center, Taiwan and DT was purchased from ChemFaces Co., Ltd., China.
The prostate cancer cells were plated at a density of 10^3 or 3×10^3 per well, in a 96-well plate, in a medium containing 10% Fetal bovine serum (FBS) (Gibco®, commercially available from Life Technologies, USA). Once the prostate cancer cells were attached to the culture dish, the 10% FBS medium was replaced with a second 10% FBS medium and each of the prostate cancer cell line was treated with 1, 5, and 10 μM of DT respectively for 1-2 days. The absorbance was measured using XTT assay kit (commercially available from Roche, Switzerland) at 492 nm using an ELISA reader (Bio-Rad Laboratories, USA).

[4] = test system: CCL2 in metastatic DU145 prostate cancer cells; test: CCL2 ELISA of culture medium, DU145; conditions: 5 or 10 μM DT, 24 hours, vs DMSO, FIG. 14 (c)
Protocol: It has been reported that increased CCL2 expression enhances cancer cell metastasis via macrophage recruitment. The effect of DT on CCL2 expression in RAW264.7 macrophages, THP1 monocytes and prostate cancer cells (metastatic DU145 and hormone therapy resistant and metastatic PC3) was examined by treating the cells with DMSO (control), 5 or 10 μM DT for 24 hours.
The culture medium was collected and the concentration of CCL2 was measured using ELISA assay.

Q: Which “concentration of CCL2” value [1] does the source give for `Cc1cccc2c3c(ccc12)C(=O)C1=C(OCC1C)C3=O` (stereo not shown) [DT, dihydroisotanshinone I] here?
A: significantly reduced

Q: What about the “colorectal cancer cell migration into the wounded area” value [2] of the same compound?
A: reduced chemotherapy resistant colorectal cancer cell migration; also recorded: reduced colon cancer cell migration into the wounded area

Q: And the “inhibition of prostate cancer cell proliferation” value [3]?
A: inhibits prostate cancer cell proliferation in a dose dependent fashion

Q: What about the “production of CCL2 in metastatic DU145 prostate cancer cells” value [4] of the same compound?
A: effectively inhibit the production of CCL2
